Laboratory results reported in US20160279190A1, “MODULATION OF AXON DEGENERATION” (GENENTECH, INC., priority 2008, published 2016).

Tests used:
[1] = test system: cerebellar granule neurons (CGNs); assay: serum deprivation/KCl reduction-induced degeneration; type: cell-based, mouse; conditions: inhibitor 5 μM; 5 mM KCl, 24 hours
Description: Kinase inhibitors (inhibitors of GSK3, JNK, EGFR, p38, and CaMKK) were tested for their capacity to protect cultured cerebellar granule neurons (CGNs) following serum deprivation/KCl reduction. Briefly, CGNs isolated from P7 mouse brain were cultured on PDL- and laminin-coated 96-well tissue culture dishes in medium containing serum and potassium (Basal Medium Eagles including 29 mM KCl and 10% FBS) at 37° C. After 24 hours in culture, cells were switched to “deprivation” medium (Basal Medium Eagles including 5 mM KCl), alone or in combination with various small molecule inhibitors as shown in Table 8. After a further 24 hours in culture, the neurons were fixed with 4% paraformaldehyde and stained with a neuronal marker (anti-class III β-Tubulin, Covance). Image acquisition was performed using the ImageXpress automated imaging system (Molecular Devices).

[2] = test system: DRGs; assay: Campenot chamber local axon degeneration, anti-NGF in axon compartment; type: cell-based, mouse; conditions: inhibitor 15 μM; anti-NGF in axon compartment, 28 hours
Description: Teflon dividers (Tyler Research) were cleaned by washing in water and wiping them clean of any residual grease. Dividers were then soaked in Nochromix (Godax Laboratories)/sulfuric acid overnight, rinsed five times in distilled and autoclaved water (SQ water), boiled for 30 minutes, and then air-dried before use.
Mouse laminin (5 μg/ml in sterile filtered water; Invitrogen) was added to PDL coated 35 mm dishes (BD Biosciences) and they were incubated for 1 hour at 37° C., followed by two rinses in SQ water. The dishes were vacuum-dried and then air-dried in a laminar flow hood for 15 minutes. Prepared dishes were then scored with a pin rake (Tyler Research). […] High vacuum grease (VWR) was added to each Teflon divider under a dissection scope. The laminin coated PDL dishes were inverted and dropped onto the Teflon divider, with additional pressure added by use of a toothpick in the non-track-containing regions. Dishes were incubated for 1 hour at 37° C. Five hundred microliters of NBM+MC (50 ng/ml NGF) solution was added to each of the side compartments, and a grease barrier was added in front of the center cell slot.
Free E13.5 spinal cords were dissected from mouse embryos and placed into NBM+MC (25 ng/ml NGF) solution. DRGs were detached from the spinal cord with a tungsten needle. An NBM+MC-lubricated P200 pipette was used to move DRGs into a 1.5 ml tube. DRGs were pelleted with a tabletop centrifuge for 30 seconds. The supernate was discarded and 0.05% Trypsin/EDTA (cold) was added. The pellet was resolubilized with a pipette and incubated at 37° C. for 15 minutes with constant agitation (650 RPM). The sample was again centrifuged and the supernate discarded. The pellet was resuspended in warm NBM+MC (50 ng/ml NGF) solution and triturated with a flamed glass pipette 20 times, followed by trituration with a fire-bored glass pipette another 20 times. The samples were again centrifuged and the resulting pellets were resuspended in 0.5 ml NBM+MC (50 ng/ml NGF) solution. The cells were diluted to a final concentration of 2.5×10^6 cells/ml. The cell suspensions were loaded into a 1 ml syringe with a 22 gauge needle. The center slot of the Campenot divider was filled using the syringe (to a volume of at least 50 μl). The Campenot chamber was incubated overnight at 37° C. 2.5 ml NGF+MC (50 ng/ml NGF) solution was added to the center compartment and the grease gate was removed. The outer medium (cell body compartment) was replaced after three days with 2.5 ml NBM+MC medium (with 25 ng/ml NGF). After five days in culture, one distal compartment was washed three times with warmed NBM+MC (no NGF) solution. After the third wash, 500 μl NBM+MC (no NGF) solution was added to the axon compartment in combination with either 0.5% DMSO or an inhibitor. The cell body compartment was replaced with 2.5 ml NBM+MC medium (with 25 ng/ml NGF) containing either 0.5% DMSO or inhibitor.
After 28 hours of anti-NGF antibody treatment, 8% PFA/30% sucrose solution (see above) was added directly to the culture medium at a 1:1 dilution and incubated for 30 minutes. The Teflon divider was removed after the first 15 minutes of addition. The system was washed once with 2.5 ml PBS prior to immunostaining. Neurons were blocked in 5% BSA/0.2% triton in PBS for 30 minutes. The primary antibody Tuj1 (Covance) was added to a final dilution of 1:1000 in PBS containing 2% BSA and incubated overnight at 4° C. The dish was washed once with PBS. […] The dish was washed twice with PBS, and a 22×22 mm coverslip (VWR) was added with 350 μl of fluoromount G (Electron Microscopy Sciences). The neurons were visualized by use of a fluorescence microscope.
As described above, E13.5 DRGs were isolated and grown for 5 days in a Campenot chamber.

Compound: O=C(O)c1ccc2c3c1cccc3c(=O)n1c3ccccc3nc21 [STO-609]
- protection of cerebellar granule neurons from serum deprivation/KCl reduction [1]: protect cerebellar granule neurons from serum deprivation/KCl reduction
- Axon Compartment (axon protected when inhibitor is in axon compartment) [2]: Yes (1)
- Cell Body Compartment (axon protected when inhibitor is in cell body compartment) [2]: No (1)
